Measurements from patent US10555987B2, “GHRH agonists for the treatment of ischemic disorders” (UNIVERSITY OF MIAMI, priority 2012, dated 2020).
Marks after values point to notes of the source that are not given here. Non-standard residues stand in square brackets, D forms with d. Residues, ends and D or L forms follow the SMILES beside them. NMeY = CN[C@@H](Cc1ccc(O)cc1)C(=O)O; Nle = CCCC[C@H](N)C(=O)O; Orn = NCCC[C@H](N)C(=O)O; Abu = CC[C@H](N)C(=O)O

What was measured:
GH release [1] = experiment: In vivo endocrine activity, GH release after subcutaneous administration (Table 9); conditions: rat; for GH releasing potency relative to JI-38 (=1): subcutaneous (s.c.) injection
Experimental: Subcutaneous Administration. Adult male rats were used and anesthetized with pentobarbital (6 mg/100 g, b.w.), by i.p. injection. […] Blood samples were taken from the jugular vein 5, 15 and/or 30 minutes after the injection. The blood samples were centrifuged, plasma was removed and the GH level was measured byELISA. The results are summarized in terms of potency in Table 9.

GH release [2] = experiment: GH releasing potency in vivo, subcutaneous administration (Example 14, Table 12); set-up: species or system rat; conditions: s.c.
Outline: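 Potency is expressed relative to GHRH(1-29)NH2 and JI-38 (each = 1), via equivalent GHRH(1-29)NH2 dose read from a standard curve. Peptides in 5% mannitol given i.v. or s.c. to anaesthetised male Sprague-Dawley rats (200-250 g); serum GH measured by ELISA at selected times.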

[3] = system: myocardial infarction (Fisher-344 rats); experiment: Serial echocardiography after MI, compared to JI-38 (Example 15, Table 15); type: in vivo, rat; set-up: key to LVEDD: Left Ventricular End Diastolic Diameter / LVESD: Left Ventricular End Systolic Diameter / VD: Ventricular Diastole / VS: Ventricular Systole / EF: Ejection Fraction / FS: Fraction Shortening: ↓: downward arrow denotes lower than JI-38; ↑: upward arrow denotes greater than JI-38; =denotes same as JI-38; ⬇⬇: double arrow denotes greater effect; ⬆⬆: double arrow denotes greater effect
Outline: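 Female 6-month-old Fisher-344 rats with permanent left coronary artery ligation received placebo, JI-38 or GHRH agonists subcutaneously twice daily from 2 h post-surgery (10 per group). Under 2% isoflurane, M-mode LVEDD, LVESD and FS plus long-axis EF were measured at baseline, 2 days, 1, 2 and 4 weeks.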

[4] = system: myocardial infarction (Fisher-344 rats); experiment: Hemodynamic analysis (pressure-volume loops), body and heart weight after MI, compared to JI-38 (Example 15, Table 16); type: in vivo, rat; set-up: key to ESP (End-Systolic Pressure) / EDP (End-Diastolic Pressure) / ESV (End-Systolic Volume) / PRSW (Preload Recruitable Stroke Work) / Ees (End-systolic Elastance) / dP/dt max (peak rate of the pressure rise) / dP/dt max_EDV / dP/dt min / TAU (relaxation time constant calculated by Weiss method) / SV (Stroke Volume) / CO (Cardiac Output) / SW (Stroke Work) / EF / Ea/Ees / Ea (arterial Elastance): ↓: downward arrow denotes lower than JI-38; ↑: upward arrow denotes greater than JI-38; =denotes same as JI-38; ⬇⬇: double arrow denotes greater effect; ⬆⬆: double arrow denotes greater effect
Outline: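 Female 6-month-old Fisher-344 rats after permanent left coronary ligation received GHRH agonists subcutaneously twice daily from 2 h post-surgery (n=10/group). Under ketamine/xylazine/acepromazine anesthesia, LV pressure-volume loops were recorded via carotid micromanometer catheter, calibrated by hypertonic saline bolus and cuvette method; echocardiography also serial.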

[5] = rat MI model, s.c. twice daily, pressure-volume loops, expressed in comparison to JI-38

For `CCCC[C@H](NC(=O)[C@@H](NC(=O)[C@H](CC(=O)O)NC(=O)[C@H](CCC(N)=O)NC(=O)[C@H](CC(C)C)NC(=O)[C@H](CC(C)C)NC(=O)[C@H](CCCN)NC(=O)[C@H](CCCNC(=N)N)NC(=O)[C@H](C)NC(=O)[C@H](CO)NC(=O)[C@H](CC(C)C)NC(=O)[C@H](CCC(N)=O)NC(=O)[C@H](CC)NC(=O)[C@H](CC(C)C)NC(=O)[C@@H](NC(=O)[C@H](CCCN)NC(=O)[C@H](CCCNC(=N)N)NC(=O)[C@H](Cc1ccc(O)cc1)NC(=O)[C@H](CO)NC(=O)[C@H](CC(N)=O)NC(=O)[C@@H](NC(=O)[C@H](Cc1ccccc1)NC(=O)[C@@H](NC(=O)[C@H](C)NC(=O)[C@H](CC(=O)O)NC(=O)[C@@H](C)NC(=O)[C@H](Cc1ccc(O)cc1)NC)[C@@H](C)CC)[C@@H](C)O)C(C)C)[C@@H](C)CC)C(=O)N[C@@H](CC(=O)O)C(=O)N[C@@H](CCCNC(=N)N)C(=O)NC` [Peptide P-27409, [N—Me-Tyr^1, D-Ala^2, Orn^12, Abu^15, Orn^21, Nle^27, Asp^28]hGHRH(1-29)NH—CH3] (H-[NMeY][dA]DAIFTNSYR[Orn]VL[Abu]QLSAR[Orn]LLQDI[Nle]DR-NHMe), the “Stimulation of growth hormone levels after subcutaneous administration (in words)” value (GH release [1]; s.c.) was “stimulated greater growth hormone levels than hGHRH or JI-38”, the “GH releasing potency relative to JI-38 (=1)” value (GH release [1]; 15 min after) was 1.47 and the “GH releasing potency relative to JI-38 (=1)” value (GH release [1]; 30 min after) was 1.31. The “Serum GH level at selected time after injection (ng/ml), 0 min” value (GH release [2]; male rats, dose 3 μg/kg, 0 min, mean ± SEM) was 18.9 ± 3.1 ng/mL, the “Serum GH level at selected time after injection (ng/ml), 15 min” value (GH release [2]; male rats, dose 3 μg/kg, 15 min, mean ± SEM) was 427.4 ± 62.4 ng/mL and the “Serum GH level at selected time after injection (ng/ml), 30 min” value (GH release [2]; male rats, dose 3 μg/kg, 30 min, mean ± SEM) was 256.7 ± 20.7 ng/mL. The “GH-releasing potency after s.c. administration (in words)” value (GH release [2]) was “significantly higher potencies at 30 minutes than at 15 minutes”, the “Relative potency compared to GHRH(1-29), 15 min” value (GH release [2]; 15 min) was 141.3 and the “Relative potency compared to JI-38, 15 min” value (GH release [2]; 15 min) was 2.24*. The “Relative potency compared to GHRH(1-29), 30 min” value (GH release [2]; 30 min) was 380.6, the “cardiac dimensions (LVEDD and LVESD)” value ([3]; after MI) was “reduced cardiac dimensions” and the “cardiac performance (EF and FS)” value ([3]; after MI) was “substantial improvement on cardiac performance”. For the same compound, the “EF: Ejection Fraction” value ([3]; in comparison to JI-38) was “⬆⬆”, the “FS: Fraction Shortening” value ([3]; in comparison to JI-38) was “⬆⬆” and the “LVEDD: Left Ventricular End Diastolic Diameter” value ([3]; in comparison to JI-38) was “⬇⬇”. The “LVESD: Left Ventricular End Systolic Diameter” value ([3]; in comparison to JI-38) was “⬇⬇”, the “VD: Ventricular Diastole” value ([3]; in comparison to JI-38) was “=” and the “VS: Ventricular Systole” value ([3]; in comparison to JI-38) was “=”. The “PRSW, index of contractility” value ([4]; after MI) was “markedly increased”, the “CO (Cardiac Output)” value [4, 5] was “⬆⬆” and the “EDP (End-Diastolic Pressure)” value [4, 5] was “↑”. The EF [4, 5] was “⬆⬆”, the “ESP (End-Systolic Pressure)” value [4, 5] was “↑” and the “ESV (End-Systolic Volume)” value [4, 5] was “=”. For the same compound, the “Ea (arterial Elastance)” value [4, 5] was “=”, the Ea/Ees [4, 5] was “↓” and the “Ees (End-systolic Elastance)” value [4, 5] was “⬆⬆”. For the same compound, the “PRSW (Preload Recruitable Stroke Work)” value [4, 5] was “⬆⬆”, the “SV (Stroke Volume)” value [4, 5] was “=” and the “SW (Stroke Work)” value [4, 5] was “=”. The “TAU (relaxation time constant calculated by Weiss method)” value [4, 5] was “=”, the “dP/dt max (peak rate of the pressure rise)” value [4, 5] was “⬆⬆” and the “dP/dt max_EDV” value [4, 5] was “=”. For the same compound, the dP/dt min [4, 5] was “=”.
